Results taken from patent publication US9765092B2, “Tricyclic piperidine compounds” (ACTELION PHARMACEUTICALS LTD, priority 2013, dated 2017).

How the values were obtained:
5HT [1] = conditions: 200 mg/kg i.p. qid for 3 days; cited from earlier work
cholangiocarcinoma = conditions: xenograft model of cholangiocarcinoma; cited from earlier work
human TPH1 = human TPH1 (Homo sapiens (Human), UniProt P17752); test: Biochemical in vitro assay using fluorescence readout (TPH1 inhibition); conditions: human TPH1, fluorescence readout
Sequence of human TPH1 (P17752 whole entry): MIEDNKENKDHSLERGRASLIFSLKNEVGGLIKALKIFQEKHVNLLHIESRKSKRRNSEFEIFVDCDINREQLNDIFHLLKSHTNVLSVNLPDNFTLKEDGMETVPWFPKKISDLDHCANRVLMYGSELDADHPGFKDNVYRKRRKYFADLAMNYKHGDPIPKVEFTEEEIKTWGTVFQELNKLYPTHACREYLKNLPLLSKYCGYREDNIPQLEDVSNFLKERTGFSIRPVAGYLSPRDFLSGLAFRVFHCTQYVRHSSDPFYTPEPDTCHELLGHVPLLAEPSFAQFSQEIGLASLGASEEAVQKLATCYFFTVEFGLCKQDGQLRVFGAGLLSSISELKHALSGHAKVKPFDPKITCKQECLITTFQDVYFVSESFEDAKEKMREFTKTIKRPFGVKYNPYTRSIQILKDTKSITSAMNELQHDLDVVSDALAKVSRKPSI

5HT [2] = conditions: mice; cited from earlier work
5HT [3] = conditions: in vivo; cited from earlier work
5HT / 5HIAA = conditions: phase IIA study, qid; cited from earlier work

For N[C@@H](Cc1ccc(Cl)cc1)C(=O)O (racemic) [PCA, p-chlorophenylalanine], the “5HT in the brain” value (5HT [1]) is given as about 20 % original, the “5HT in the gut” value (5HT [1]) is given as about 50 % original and the tumor volume (cholangiocarcinoma) is given as “dramatic reduction in tumor volume”.

CCc1nc(NS(C)(=O)=O)ccc1OCC(=O)N1CCc2nc3sc(CF)nn3c2C1c1ncc(C)cc1F (stereo not drawn) [Example 7.2.2, N-(6-ethyl-5-(2-(5-(3-fluoro-5-methylpyridin-2-yl)-2-(fluoromethyl)-7,8-dihydro-[1,3,4]thiadiazolo[2′,3′:2,3]imidazo[4,5-c]pyridin-6(5H)-yl)-2-oxoethoxy)pyridin-2-yl)methanesulfonamide] gave an IC50 (human TPH1) of 20 nM.

With Cc1ccc(C2c3c(nc4sc(CF)nn34)CCN2C(=O)COc2ccc(NS(C)(=O)=O)nc2Cl)c(F)c1 (stereo not drawn) [Example 7.3.1, N-(6-chloro-5-(2-(5-(2-fluoro-4-methylphenyl)-2-(fluoromethyl)-7,8-dihydro-[1,3,4]thiadiazolo[2′,3′:2,3]imidazo[4,5-c]pyridin-6(5H)-yl)-2-oxoethoxy)pyridin-2-yl)methanesulfonamide] the IC50 (human TPH1) was 8 nM.

Work on CCc1nc(NS(C)(=O)=O)ccc1OCC(=O)N1CCc2nc3sc(CF)nn3c2C1c1ccc(C)cc1F (stereo not drawn) [Example 7.3.2, N-(6-ethyl-5-(2-(5-(2-fluoro-4-methylphenyl)-2-(fluoromethyl)-7,8-dihydro-[1,3,4]thiadiazolo[2′,3′:2,3]imidazo[4,5-c]pyridin-6(5H)-yl)-2-oxoethoxy)pyridin-2-yl)methanesulfonamide] yielded an IC50 (human TPH1) of 12 nM.

With CCc1nc(C(=O)NC2CC2)ccc1OCC(=O)N1CCc2nc3sc(CF)nn3c2C1c1sc(C)nc1C (stereo not drawn) [Example 7.4.1, N-cyclopropyl-5-(2-(5-(2,4-dimethylthiazol-5-yl)-2-(fluoromethyl)-7,8-dihydro-[1,3,4]thiadiazolo[2′,3′:2,3]imidazo[4,5-c]pyridin-6(5H)-yl)-2-oxoethoxy)-6-ethylpicolinamide] the IC50 (human TPH1) was 7 nM.

Work on CCc1nc(NS(C)(=O)=O)ccc1OCC(=O)N1CCc2nc3sc(CF)nn3c2C1c1sc(C)nc1C (stereo not drawn) [Example 7.4.2, N-(5-(2-(5-(2,4-dimethylthiazol-5-yl)-2-(fluoromethyl)-7,8-dihydro-[1,3,4]thiadiazolo[2′,3′:2,3]imidazo[4,5-c]pyridin-6(5H)-yl)-2-oxoethoxy)-6-ethylpyridin-2-yl)methanesulfonamide] yielded an IC50 (human TPH1) of 7 nM.

For CCc1nc(N2CCCS2(=O)=O)ccc1OCC(=O)N1CCc2nc3sc(CF)nn3c2C1c1sc(C)nc1C (stereo not drawn) [Example 7.4.3, 1-(5-(2,4-dimethylthiazol-5-yl)-2-(fluoromethyl)-7,8-dihydro-[1,3,4]thiadiazolo[2′,3′:2,3]imidazo[4,5-c]pyridin-6(5H)-yl)-2-((6-(1,1-dioxidoisothiazolidin-2-yl)-2-ethylpyridin-3-yl)oxy)ethanone], the IC50 (human TPH1) was 8 nM.

CS(=O)(=O)Nc1ccc(OCC(=O)N2CCc3nc4sc(C(F)F)nn4c3C2c2ccc(Cl)cc2F)c(Cl)n1 (stereo not drawn) [Example 8.1.1, N-(6-chloro-5-(2-(5-(4-chloro-2-fluorophenyl)-2-(difluoromethyl)-7,8-dihydro-[1,3,4]thiadiazolo-[2′,3′:2,3]imidazo[4,5-c]pyridin-6(5H)-yl)-2-oxoethoxy)pyridin-2-yl)methanesulfonamide] showed an IC50 (human TPH1) of 19 nM.

Work on CCc1nc(NS(C)(=O)=O)ccc1OCC(=O)N1CCc2nc3sc(C(F)F)nn3c2C1c1ccc(Cl)cc1F (stereo not drawn) [Example 8.1.2, N-(5-(2-(5-(4-chloro-2-fluorophenyl)-2-(difluoromethyl)-7,8-dihydro-[1,3,4]thiadiazolo[2′,3′:2,3]imidazo[4,5-c]pyridin-6(5H)-yl)-2-oxoethoxy)-6-ethylpyridin-2-yl)methanesulfonamide] yielded an IC50 (human TPH1) of 10 nM.

Molecule CCc1nc(N2CCCS2(=O)=O)ccc1OCC(=O)N1CCc2nc3sc(C(F)F)nn3c2C1c1ccc(Cl)cc1F (stereo not drawn) [Example 8.1.3, 1-(5-(4-chloro-2-fluorophenyl)-2-(difluoromethyl)-7,8-dihydro-[1,3,4]thiadiazolo[2′,3′:2,3]imidazo[4,5-c]pyridin-6(5H)-yl)-2-((6-(1,1-dioxidoisothiazolidin-2-yl)-2-ethylpyridin-3-yl)oxy)ethanone] has an IC50 (human TPH1) of 7 nM.

For CS(=O)(=O)Nc1ccc(OCC(=O)N2CCc3nc4sc(C(F)F)nn4c3[C@@H]2c2ccc(Cl)cc2F)c(Cl)n1 [Example 8.1.4], the IC50 (human TPH1) was 12 nM.

In the case of Cc1ccc(C2c3c(nc4sc(C(F)F)nn34)CCN2C(=O)COc2ccc(NS(C)(=O)=O)nc2Cl)c(F)c1 (stereo not drawn) [Example 8.2.1, N-(6-chloro-5-(2-(2-(difluoromethyl)-5-(2-fluoro-4-methylphenyl)-7,8-dihydro-[1,3,4]thiadiazolo[2′,3′:2,3]imidazo[4,5-c]pyridin-6(5H)-yl)-2-oxoethoxy)pyridin-2-yl)methanesulfonamide], the IC50 (human TPH1) is reported as 24 nM.

Molecule CCc1nc(C(=O)NC2CC2)ccc1OCC(=O)N1CCc2nc3sc(C(F)F)nn3c2C1c1sc(C)nc1C (stereo not drawn) [Example 8.3.1, N-cyclopropyl-5-(2-(2-(difluoromethyl)-5-(2,4-dimethylthiazol-5-yl)-7,8-dihydro-[1,3,4]thiadiazolo[2′,3′:2,3]imidazo[4,5-c]pyridin-6(5H)-yl)-2-oxoethoxy)-6-ethylpicolinamide] has an IC50 (human TPH1) of 11 nM.

In the case of CCc1nc(N2CCCS2(=O)=O)ccc1OCC(=O)N1CCc2nc3sc(C(F)F)nn3c2C1c1sc(C)nc1C (stereo not drawn) [Example 8.3.2, 1-(2-(difluoromethyl)-5-(2,4-dimethylthiazol-5-yl)-7,8-dihydro-[1,3,4]thiadiazolo[2′,3′:2,3]imidazo[4,5-c]pyridin-6(5H)-yl)-2-((6-(1,1-dioxidoisothiazolidin-2-yl)-2-ethylpyridin-3-yl)oxy)ethanone], the IC50 (human TPH1) is reported as 13 nM.

For Nc1nc(OC(c2ccc(-c3cccc(F)c3)cc2)C(F)(F)F)cc(-c2ccc(C[C@H](N)C(=O)O)cc2)n1 (stereo partly drawn) [LP533401], the “brain 5HT concentrations” value (5HT [2]) is listed as “without effecting brain concentrations” and the “gut 5HT” value (5HT [2]) is listed as “lower gut 5HT”.

For COc1cccc(-c2ccc([C@@H](Oc3cc(-c4ccc(C[C@H](N)C(=O)O)cc4)nc(N)n3)C(F)(F)F)cc2)c1 [LX1031, (S)-2-Amino-3-(4-{2-amino-6-[(R)-2,2,2-trifluoro-1-(3′-methoxy-biphenyl-4-yl)-ethoxy]-pyrimidin-4-yl}-phenyl)-propionic acid], the “5HT in the colon” value (5HT [3]) is given as “only a minor reduction”, the “5HT in the jejunum” value (5HT [3]) is given as “lowers 5HT in the jejunum” and the “brain 5HT” value (5HT [3]) is given as “no effect on brain 5HT”. For the same molecule, the “blood 5HT” value (5HT / 5HIAA) was “did not affect blood 5HT” and the “urinary 5HIAA reduction” value (5HT / 5HIAA) was “up to 30%”.

For “N-(5-(2-(5-(4-(aminomethyl)-2-fluorophenyl)-2-methyl-7,8-dihydro-[1,3,4]thiadiazolo[2′,3′:2,3]imidazo[4,5-c]pyridin-6(5H)-yl)-2-oxoethoxy)-6-chloropyridin-2-yl)methanesulfonamide [Example 1.78.1]”, the IC50 (human TPH1) was 10 nM.
